Measurements: patent US20180298405A1, “METHODS AND COMPOSITIONS TO INCREASE HUMAN SOMATIC CELL NUCLEAR TRANSFER (SCNT) EFFICIENCY BY REMOVING HISTONE H3-LYSINE TRIMETHYLATION, AND DERIVATION OF HUMAN NT-ESC” (CHILDREN'S MEDICAL CENTER CORPORATION, priority 2015, published 2018)
“And” between values parts separate entries of the source, which are not always exact repeats. Equal entries are not always repeated.

Test system: human SCNT embryos
Assay: Preimplantation development of KDM4A-assisted human SCNT embryos
Format: cell-based
Conditions: for embryos reaching the blastocyst stage: day 6; for embryos developed to the expanded blastocyst stage: day 7
Method: All MII stage human oocytes with distinctive 1st polar bodies were enucleated under an inverted microscope equipped with a Poloscope (Oosight®, Cambridge Research & Instrumentation). The enucleation and nuclear donor cell fusion were carried out in the presence of caffeine (1.25 mM). For enucleation, oocytes were pre-incubated in Global HTF medium with Hepes (Life Global) containing 0.5 μg/ml cytochalasin B and caffeine (1.25 mM) for 5 minutes. Then, the spindle complex was removed using a PIEZO actuator (Primetech, Japan). Dermal fibroblast cells resuspended in a drop containing HVJ-E extract (Cosmo Bio, USA) were inserted into the perivitelline space of the enucleated oocytes. The reconstructed oocytes were kept in the manipulation medium containing caffeine (1.25 mM) until the cell fusion was confirmed, and then the reconstructed oocytes were transferred into Global medium 10% SPS, and incubated for 1-1.5 hours before activation. Activation was carried out by applying electropulses (2×50 μs DC pulses, 2.7 kV/cm) in 0.25M d-sorbitol buffer and 6-DMAP (2 mM, 4 hrs) as previously described (Tachibana et al., 2013). The activated embryos were transferred to Global 10% SPS medium supplemented with Trichostatin A (TSA, 10 nM, Sigma) for 12 hrs, then the embryos were transferred to Global 10% FBS without TSA and cultured for up to 7 days in an incubator with atmosphere of 6% CO2/5% O2/89% N2 at 37° C. The culture medium was changed on day 3.
For mRNA injection, the activated SCNT embryos were washed and cultured in Global 10% SPS for 1 hr before the KDM4A mRNA injection. Approximately 10 pl of KDM4A mRNA were injected into the SCNT embryos at 5 hours after activation in Hepes-HTF 10% SPS medium using a PIEZO actuator as described previously (Matoba et al., 2014). More details on donor cell preparation, mRNA preparation, RNA-seq and other procedures can be found in the Supplemental Experimental Procedures.
In vitro transcription was performed as described previously (Matoba et al., 2014). Briefly, full length human KDM4A/JHDM3A cDNA was cloned into a pcDNA3.1 plasmid containing poly(A)83 at the 3′ end of cloning site. The catalytic defective mutant form of KDM4A (H188A) was generated using PrimeSTAR mutagenesis kit (TAKARA # R045A). mRNA was synthesized using the mMESSAGE mMACHINE T7 Ultra Kit (Life technologies # AM1345). The synthesized mRNA was dissolved in nuclease-free water. The concentration of mRNA was measured by NanoDrop ND-1000 spectrophotometer (NanoDrop Technologies). Aliquots of mRNA were stored at −80° C. until use.
Ovarian stimulation was carried out as described previously (Chung et al., 2014). Briefly, a combination of human recombinant follicle-stimulating hormone (rFSH, 225-3001U, Merck) and human menopausal gonadotropin (Menopur 751U, Ferring) were used to stimulate ovary for 9-11 days with GnRH antagonist (Ganirelix acetate, Merck) suppression. Lupron 4 mg was used to mimic the LH surge when 1 or 2 follicles reached 18 mm in diameter. All medications were administered through subcutaneous injections. Transvaginal oocyte retrieval was performed approximately 36 hours after the Lupron injection. The collected COCs were denuded with 5080 IU/ml hyaluronidase (Sigma-Aldrich) within 1-2 hours after retrieval. Then, they were kept in Global medium supplemented with 10% serum protein supplement (SPS; Cooper Surgical) (IVF Online) until use.
The procedures for somatic nuclear donor cell preparation are essentially the same as previously described (Chung et al., 2014). Briefly, the skin explant was mechanically minced and treated with collagenase (type I, 200 unit/ml, Worthington-biochem) in DMEM supplemented with 10 μg/ml penicillin-streptomycin solution to dissociate the skin tissue. […]

[1] = pooled four oocyte donors, per 2-cell
[2] = pooled four oocyte donors, per 2-cell, listed as KDM4A

## KDM4A mRNA: in vitro transcribed mRNA of full length human KDM4A/JHDM3A cDNA, an H3K9me3 demethylase (SEQ ID NO: 1)
Four oocyte donors tested, TSA present
  oocyte donors whose oocytes supported blastocyst formation: all four donors tested supported blastocyst formation
[1]
  embryos reaching the blastocyst stage: 26.8% and 27%
  embryos developed to the expanded blastocyst stage: 14.3%
  developmental rate to 8-cell stage: 71.4%
  developmental rate to morula stage: 32%
[2]
  embryos reaching the blastocyst stage: 26.8%
  embryos developed to the expanded blastocyst stage: 14% and 14.3%
  developmental rate to morula stage: 32.1%
Pooled oocytes of four donors, AMD patient fibroblast donors, mRNA injected 5 h after activation, per 1-cell
  cleavage efficiency to form 2-cell embryos: 88.9%
Versus control hSCNT embryos (4.2%)
  increase in hSCNT embryos developing into blastocysts: greater than 20%
Versus non-treated human SCNT embryos (0%)
  increase in embryos reaching expanded blastocyst stage: 14%
